# Earlier results as cited in patent US12594250B2, “Prevention of accumulated tolerance to stimulant medication for the treatment of ADHD” (priority 2021, dated 2026).
# Read-outs that look alike come from different tables or passages of the source.
# Assays:
# [1] = test system: children with ADHD
# [2] = molecular target: T1, DA Transporter (DAT) (Homo sapiens, UniProt Q01959); conditions: adults with ADHD, a year of consistent medication use
# T1 construct: dopamine transporter density was increased in specific dopamine regions of the brain; host or cells: living brain (caudate nucleus, nucleus accumbens) of adults with ADHD; endogenous protein
# [3] = test system: children with ADHD; conditions: for duration of effect / action / efficacy: after one administration
# [4] = oral administration; for time to maximum serum concentration (C-max): immediate-release bolus
# [5] = test system: ADHD; conditions: high dose of IR formulation
# T1 sequence (Q01959 whole entry): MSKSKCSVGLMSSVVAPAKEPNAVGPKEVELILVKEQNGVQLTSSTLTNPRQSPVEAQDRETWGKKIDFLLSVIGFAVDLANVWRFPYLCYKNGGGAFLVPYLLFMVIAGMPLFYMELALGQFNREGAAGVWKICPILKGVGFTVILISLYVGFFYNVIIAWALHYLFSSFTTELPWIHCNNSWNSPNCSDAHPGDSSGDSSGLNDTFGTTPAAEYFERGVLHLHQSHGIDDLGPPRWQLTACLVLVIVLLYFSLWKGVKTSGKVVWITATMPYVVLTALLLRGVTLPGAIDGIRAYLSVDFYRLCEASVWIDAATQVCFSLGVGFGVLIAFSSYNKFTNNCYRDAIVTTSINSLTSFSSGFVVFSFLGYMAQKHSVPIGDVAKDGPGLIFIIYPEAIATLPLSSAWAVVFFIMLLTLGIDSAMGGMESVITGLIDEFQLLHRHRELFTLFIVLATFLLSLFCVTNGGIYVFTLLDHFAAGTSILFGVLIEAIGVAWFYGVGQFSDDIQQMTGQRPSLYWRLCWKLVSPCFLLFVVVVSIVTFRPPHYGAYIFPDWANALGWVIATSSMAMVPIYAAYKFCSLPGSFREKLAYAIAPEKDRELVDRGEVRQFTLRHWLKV
compound,measurement,setting,value
COC(=O)C(c1ccccc1)C1CCCCN1 (centres unmarked) [methylphenidate],effect (PD response) across the day,[1]; ascending PK profile,increasing effect
same,effect (PD response) across the day,[1]; flat PK profile,decreasing effect
same,DAT density,[2],increases DAT density
same,duration of effect / action / efficacy,[3]; listed as Ritalin,3 h
same,onset of clinical effect (reduction in symptoms),[3]; after oral administration,within an hour
same,time to maximum serum concentration (C-max),[4],about 1 hours
same,half-life (T-½),[4]; serum concentration,2 to 3 h
"NC1=NC(=O)C(c2ccccc2)O1 (centres unmarked) [Cylert, pemoline]",duration of effect / action / efficacy,[3],6 h
NC(=O)C[S+]([O-])C(c1ccccc1)c1ccccc1 (centres unmarked) [modafinil],serious side effects,[5],a few cases were suspected of serious dermatologic side effects
CC(N)Cc1ccccc1 (centres unmarked) [amphetamine],duration of constant effect,[3]; twice-a-day (BID) dosing of immediate-release,10 to 12 h
same,time to maximum serum concentration (C-max),[4],about 2 hours
